Here are results for two compounds from BindingDB's records for doi:10.1007/s002100000327 (Leicester Royal Infirmary, 2001).

A word on the Ki: it is the dissociation constant of the complex between target and ligand, obtained from inhibition or displacement. A low value points to tighter binding.

Some results are limits rather than exact numbers.

Test [1] deals with Kappa-type opioid receptor (Homo sapiens, UniProt P41145).
The next test concerns the target Mu-type opioid receptor (Homo sapiens, UniProt P35372).
Test [2] addresses Delta-type opioid receptor (Homo sapiens, UniProt P41143).

Chain of Kappa-type opioid receptor (P41145 whole entry): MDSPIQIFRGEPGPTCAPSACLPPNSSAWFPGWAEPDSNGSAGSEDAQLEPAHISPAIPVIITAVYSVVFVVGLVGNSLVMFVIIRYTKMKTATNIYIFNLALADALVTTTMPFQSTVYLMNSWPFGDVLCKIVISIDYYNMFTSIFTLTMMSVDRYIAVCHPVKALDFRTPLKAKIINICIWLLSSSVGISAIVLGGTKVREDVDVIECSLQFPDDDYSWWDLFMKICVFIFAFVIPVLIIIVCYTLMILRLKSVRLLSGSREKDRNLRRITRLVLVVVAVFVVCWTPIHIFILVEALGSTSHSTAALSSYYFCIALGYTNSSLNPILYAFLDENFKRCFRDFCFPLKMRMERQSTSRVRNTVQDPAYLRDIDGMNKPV
Chain of Delta-type opioid receptor (P41143 whole entry): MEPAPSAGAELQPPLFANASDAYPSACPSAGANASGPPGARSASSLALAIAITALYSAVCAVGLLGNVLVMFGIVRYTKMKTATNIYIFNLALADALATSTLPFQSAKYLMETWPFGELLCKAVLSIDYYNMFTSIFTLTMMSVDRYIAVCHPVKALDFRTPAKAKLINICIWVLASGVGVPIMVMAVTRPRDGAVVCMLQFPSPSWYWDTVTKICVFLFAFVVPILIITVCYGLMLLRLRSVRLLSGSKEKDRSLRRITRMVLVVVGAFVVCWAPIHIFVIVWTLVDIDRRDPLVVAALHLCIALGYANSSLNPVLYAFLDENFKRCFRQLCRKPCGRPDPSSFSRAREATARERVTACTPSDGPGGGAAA
Chain of Mu-type opioid receptor (P35372 whole entry): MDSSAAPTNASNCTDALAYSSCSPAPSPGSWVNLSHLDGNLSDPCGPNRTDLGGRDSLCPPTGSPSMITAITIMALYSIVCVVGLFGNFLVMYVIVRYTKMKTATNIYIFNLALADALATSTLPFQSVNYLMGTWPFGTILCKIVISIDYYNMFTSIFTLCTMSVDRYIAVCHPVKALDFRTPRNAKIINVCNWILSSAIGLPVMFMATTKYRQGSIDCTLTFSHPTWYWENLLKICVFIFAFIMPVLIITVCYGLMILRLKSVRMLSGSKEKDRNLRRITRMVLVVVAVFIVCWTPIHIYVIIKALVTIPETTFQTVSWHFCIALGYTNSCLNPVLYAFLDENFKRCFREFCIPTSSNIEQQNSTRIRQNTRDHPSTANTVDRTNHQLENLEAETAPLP

On to `C[C@H](NC(=O)CNC(=O)[C@@H](NC(=O)[C@H](Cc1ccccc1)NC(=O)CNC(=O)CNC(=O)CNCc1ccccc1)[C@@H](C)O)C(=O)N[C@@H](CCCN=C(N)N)C(=O)N[C@@H](CCCCN)C(=O)N[C@@H](CO)C(=O)N[C@@H](C)C(=O)N[C@@H](CCCN=C(N)N)C(=O)N[C@@H](CCCCN)C(N)=O` [H-PHE-(R)-GLY-GLY-PHE-THR-GLY-ALA-ARG-LYS-SER-ALA-ARG-LYS-NH2], for which the values for the Ki (in test [1]; at Mu-type opioid receptor; in test [2]) were 1100 nM, more than 10000 nM and more than 10000 nM, respectively.

Regarding `CC(=O)N[C@@H](CCCN=C(N)N)C(=O)N[C@H](CC1CCCCC1)C(=O)N[C@H]1CC[C@@H]2SC[C@@H](C(=O)N[C@H](CCCN=C(N)N)C(=O)N[C@H](Cc3ccc(Cl)cc3)C(N)=O)N2C1=O` [NOCICEPTIN RECEPTOR ANTAGONIST PEPTIDE III-BTD], the Ki worked out at 11.5 nM in test [1], 8.91 nM at Mu-type opioid receptor and 60.3 nM in test [2].
